Laboratory results as given in patent publication US20230312550A1, “N-(2-(4-CYANOTHIAZOLIDIN-3-YL)-2-OXOETHYL)-QUINOLINE-4-CARBOXAMIDES” (AstraZeneca AB, priority 2020, published 2023).
Converted amounts (≈) assume the structure as drawn.

Assays:
FAP = FAP (Homo sapiens (Human), UniProt Q12884); assay: hFAP inhibition assay; format: biochemical; settings: Ala-Pro-AMC 20 μM, n = 1 or geometric mean n = 2-3
Description: 384 low volume black plates (Greiner #784076) were used. 4 μL, 0.48 nM enzyme solution (100 mM Tris HCl, 100 mM NaCl, 0.05% Chaps, pH 7.4) was added to 40 nL compounds (in DMSO) at 10 CR, 3 fold dilution series from 50 μM FAC. Plates were incubated for 15 min at rt in dark. 4 μL, 40 μM substrate solution (100 mM Tris HCl, 100 mM NaCl, 0.05% Chaps, pH 7.4) was added to each well. Plates were centrifuged at 1000 rpm and incubated for 30 min at rt in dark. The plates were read on a PHERAstar® reader with excitation 340 nm and emission 460 nm. Data were analyzed in Genedata Screener®. IC50 values were determined by plotting % inhibition versus log compound concentration and using a one site dose response model.

[1] = target: human Fibroblast activation protein alpha (hFAP) (Homo sapiens (Human), UniProt Q12884); assay: hFAP inhibition assay (tight binders); format: biochemical; settings: Ala-Pro-AMC 20 μM, n = 1 or geometric mean n = 2-6; also: hFAP 2.4 pM
human Fibroblast activation protein alpha (hFAP), sequence (Q12884 38-760): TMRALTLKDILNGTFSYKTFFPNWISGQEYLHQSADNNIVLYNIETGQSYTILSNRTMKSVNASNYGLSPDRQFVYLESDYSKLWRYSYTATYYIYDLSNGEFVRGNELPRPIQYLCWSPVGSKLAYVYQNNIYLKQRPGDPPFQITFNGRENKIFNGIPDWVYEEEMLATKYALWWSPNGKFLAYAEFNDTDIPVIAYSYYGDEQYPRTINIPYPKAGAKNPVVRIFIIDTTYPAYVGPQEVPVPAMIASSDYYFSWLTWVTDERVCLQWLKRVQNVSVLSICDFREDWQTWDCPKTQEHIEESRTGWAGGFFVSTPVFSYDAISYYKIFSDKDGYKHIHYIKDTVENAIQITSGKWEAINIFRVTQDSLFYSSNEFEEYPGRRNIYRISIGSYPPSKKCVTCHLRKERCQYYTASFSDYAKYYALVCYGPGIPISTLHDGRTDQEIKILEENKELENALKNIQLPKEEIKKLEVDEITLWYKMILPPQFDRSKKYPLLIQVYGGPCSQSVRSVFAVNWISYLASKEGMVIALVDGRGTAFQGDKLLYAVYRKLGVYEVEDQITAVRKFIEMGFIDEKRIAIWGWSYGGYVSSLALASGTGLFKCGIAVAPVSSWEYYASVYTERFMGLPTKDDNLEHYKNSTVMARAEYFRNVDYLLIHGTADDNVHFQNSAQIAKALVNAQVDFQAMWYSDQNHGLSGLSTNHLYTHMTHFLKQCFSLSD
Description: The plates were read on a PHERAstar® reader with excitation 340 nm and emission 460 nm. Data were analyzed in Genedata Screener®. IC50 values were determined by plotting % inhibition versus log compound concentration and using a one site dose response model.

hFAP (M39-A757) = hFAP (M39-A757) (Homo sapiens (Human), UniProt Q12884); assay: hFAP binding assay (surface plasmon resonance); settings: SPR, 20° C.; for hFAP Binding assay k(off) / hFAP Binding assay k(on): single cycle kinetics; for Kd: n = 1 or geometric mean n = 2-4
hFAP (M39-A757), sequence (Q12884 39-757): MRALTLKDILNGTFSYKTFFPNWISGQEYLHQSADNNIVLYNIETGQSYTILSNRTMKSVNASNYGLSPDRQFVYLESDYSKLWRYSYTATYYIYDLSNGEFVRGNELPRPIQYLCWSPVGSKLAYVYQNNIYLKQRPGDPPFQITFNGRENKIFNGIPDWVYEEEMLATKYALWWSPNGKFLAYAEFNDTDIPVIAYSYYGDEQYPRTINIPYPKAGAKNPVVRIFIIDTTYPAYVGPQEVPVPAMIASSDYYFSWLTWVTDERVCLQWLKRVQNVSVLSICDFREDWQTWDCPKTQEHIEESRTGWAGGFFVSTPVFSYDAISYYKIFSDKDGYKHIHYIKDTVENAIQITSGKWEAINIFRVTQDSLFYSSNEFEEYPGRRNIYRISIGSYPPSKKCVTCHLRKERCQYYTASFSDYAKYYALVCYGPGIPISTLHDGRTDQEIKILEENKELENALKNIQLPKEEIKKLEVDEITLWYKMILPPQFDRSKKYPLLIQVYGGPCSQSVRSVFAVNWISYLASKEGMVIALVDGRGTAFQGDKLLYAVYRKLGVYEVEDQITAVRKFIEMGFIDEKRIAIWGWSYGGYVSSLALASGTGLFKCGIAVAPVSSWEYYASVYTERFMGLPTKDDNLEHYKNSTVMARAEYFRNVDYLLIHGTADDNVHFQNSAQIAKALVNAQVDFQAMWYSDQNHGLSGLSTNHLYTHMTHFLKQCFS
Description: Compounds were tested in a direct binding assay using 8K surface plasmon resonance biosensor (GE Healthcare) at 20° C. Immobilization of hFAP (M39-A757) on a CMD200M sensor chip (Xantec) was performed using standard amine coupling procedure in immobilization buffer (10 mM HEPES, 150 mM NaCl, 0.05% Tween20, pH 7.4). The surface was washed with 10 mM NaOH, 1M NaCl before being activated with EDC/NHS (GE Healthcare), followed by immobilization of hFAP (in 10 mM Acetate pH 5.0). Finally, the surface was deactivated by ethanolamine. Immobilization levels of hFAP were around 4000-6000 RU. The reference spot was treated as described, omitting the injection of hFAP. Compound concentration series were injected over the immobilized protein in increasing concentrations (2-500 nM) using single cycle kinetics in running buffer (20 mM TRIS, 150 mM NaCl, 0.05% Tween20, 1% DMSO, pH 7.4). Interaction models were fitted globally to the experimental traces, enabling determination of kon, koff and Kd.

[2] = target: Prolyl endopeptidase, Prolyl Oligopeptidase (hPREP) (Homo sapiens (Human), UniProt P48147); assay: hPrep inhibition assay; format: biochemical; settings: hPREP 0.6 nM, Z-Gly-Pro-amino-methylcoumarin 50 μM; read-out: PREP IC50
Prolyl endopeptidase, Prolyl Oligopeptidase (hPREP), sequence (P48147 whole entry): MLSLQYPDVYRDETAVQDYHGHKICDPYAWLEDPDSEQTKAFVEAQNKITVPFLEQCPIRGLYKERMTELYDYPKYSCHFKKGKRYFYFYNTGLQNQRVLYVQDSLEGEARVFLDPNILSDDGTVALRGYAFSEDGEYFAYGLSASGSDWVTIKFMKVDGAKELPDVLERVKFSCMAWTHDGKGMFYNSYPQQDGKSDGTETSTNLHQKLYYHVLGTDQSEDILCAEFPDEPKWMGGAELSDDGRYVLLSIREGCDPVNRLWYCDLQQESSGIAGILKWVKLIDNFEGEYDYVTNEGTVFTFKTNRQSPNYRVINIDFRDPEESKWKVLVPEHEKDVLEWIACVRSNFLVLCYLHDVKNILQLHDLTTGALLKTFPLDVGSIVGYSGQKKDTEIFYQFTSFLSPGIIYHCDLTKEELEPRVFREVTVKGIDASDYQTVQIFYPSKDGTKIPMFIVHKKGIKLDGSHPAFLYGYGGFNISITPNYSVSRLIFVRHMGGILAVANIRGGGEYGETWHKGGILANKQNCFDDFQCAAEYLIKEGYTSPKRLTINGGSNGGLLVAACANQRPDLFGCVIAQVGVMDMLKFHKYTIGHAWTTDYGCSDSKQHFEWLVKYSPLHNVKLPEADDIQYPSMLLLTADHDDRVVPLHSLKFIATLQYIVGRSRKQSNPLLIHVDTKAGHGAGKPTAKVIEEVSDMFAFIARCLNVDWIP
How it was run: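 Recombinant human PREP at 0.6 nM final with Z-Gly-Pro-AMC substrate at 50 μM final in Tris-HCl pH 7.5, NaCl, Triton X-100, glutathione; 15 min rt preincubation then 20 min rt reaction in dark. AMC fluorescence (ex 340/em 460 nm); IC50 from one-site dose-response fit of % inhibition.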

Kinetic solubility = settings: kinetic from dmso stock
Description: Kinetic solubility was measured as described in Comput Aided Mol Des 2015, 29, 795.

[3] = Metabolic stability in rat hepatocytes (rHep); settings: n = 1 or geometric mean of n = 2-3
[4] = Metabolic stability in human liver microsomes (HLM); settings: human
Description: Metabolic stability in HLM was measured as described in J Comput Aided Mol Des 2015, 29, 795.

[5] = Solubility, kinetic solubility, n = 1 or average of n = 2-3
[6] = HLM CLint, n = 1 or average of n = 2-3

FAP, sequence (Q12884 38-760): as the sequence (Q12884 38-760) above

Row | Compound | IC50 (FAP; hFAP 0.24 nM) | IC50 [1] | hFAP Binding assay k(off) (hFAP (M39-A757)) | hFAP Binding assay k(on) (hFAP (M39-A757)) | Kd (hFAP (M39-A757)) | IC50 [2] | solubility (Kinetic solubility; [5]) | rHep CLint [3] | microsomal CLint [4, 6] | IC50 (FAP; hFAP […]) | solubility (Kinetic solubility) | microsomal CLint [4]
1 | N#C[C@@H]1CSCN1C(=O)CNC(=O)c1ccnc2ccc(N3CC4(CCC4)C3)cc12 [Example 17, (R)—N-(2-(4-Cyanothiazolidin-3-yl)-2-oxoethyl)-6-(2-azaspiro[3.3]heptan-2-yl)quinoline-4-carboxamide] |  | 0.085 nM | 0.00012 s⁻¹ | 8300000 M⁻¹ s⁻¹ | 0.015 nM | 160 nM |  | 16 μL/min/1E6 |  | 0.22 nM | 250 µM (≈ 105 µg/mL) | 18 µL/min/mg
2 | N#C[C@@H]1CSCN1C(=O)CNC(=O)c1ccnc2ccc(N3CCC34CCC4)cc12 [Example 19, (R)—N-(2-(4-Cyanothiazolidin-3-yl)-2-oxoethyl)-6-(1-azaspiro[3.3]heptan-1-yl)quinoline-4-carboxamide] |  | 0.38 nM | 0.000066 s⁻¹ | 430000 M⁻¹ s⁻¹ | 0.15 nM | 160 nM |  | 63 μL/min/1E6 |  | 0.66 nM | 480 µM (≈ 202 µg/mL) | 190 µL/min/mg
3 | CC1(C)CCN1c1ccc2nccc(C(=O)NCC(=O)N3CSC[C@H]3C#N)c2c1 [Example 20, (R)—N-(2-(4-Cyanothiazolidin-3-yl)-2-oxoethyl)-6-(2,2-dimethylazetidin-1-yl)quinoline-4-carboxamide] |  | 0.43 nM | 0.00012 s⁻¹ | 4200000 M⁻¹ s⁻¹ | 0.03 nM | 430 nM | 900 µM (≈ 369 µg/mL) | 120 μL/min/1E6 | 290 µL/min/mg | 0.74 nM |  | 
4 | N#C[C@@H]1CSCN1C(=O)CNC(=O)c1ccnc2ccc(N3CC(F)(F)C3)cc12 [Example 23, (R)—N-(2-(4-Cyanothiazolidin-3-yl)-2-oxoethyl)-6-(3,3-difluoroazetidin-1-yl)quinoline-4-carboxamide] |  | 0.2 nM | 0.00018 s⁻¹ | 2100000 M⁻¹ s⁻¹ | 0.085 nM | 160 nM | 63 µM (≈ 26.3 µg/mL) | 27 μL/min/1E6 | 25 µL/min/mg | 0.31 nM |  | 
5 | CC1CN(c2ccc3nccc(C(=O)NCC(=O)N4CSC[C@H]4C#N)c3c2)C1 [Example 25, (R)—N-(2-(4-Cyanothiazolidin-3-yl)-2-oxoethyl)-6-(3-methylazetidin-1-yl)-quinoline-4-carboxamide] |  | 0.3 nM | 0.00011 s⁻¹ | 1400000 M⁻¹ s⁻¹ | 0.076 nM | 370 nM | 130 µM (≈ 51.4 µg/mL) | 14 μL/min/1E6 | 23 µL/min/mg | 0.41 nM |  | 
6 | C[C@@H]1COC[C@H](C)N1c1cc2c(C(=O)NCC(=O)N3CSC[C@H]3C#N)ccnc2cc1Br [Example 100, 7-Bromo-N-(2-((R)-4-cyanothiazolidin-3-yl)-2-oxoethyl)-6-((3S,5R)-3,5-dimethylmorpholino)quinoline-4-carboxamide] |  | 0.27 nM | 0.0022 s⁻¹ | 3000000 M⁻¹ s⁻¹ | 0.73 nM | 170 nM | 36 µM (≈ 18.7 µg/mL) | 280 μL/min/1E6 |  | 0.5 nM |  | 

Second part, led by results:

Row | IC50 (FAP; hFAP 0.24 nM) | IC50 [1] | hFAP Binding assay k(off) (hFAP (M39-A757)) | hFAP Binding assay k(on) (hFAP (M39-A757)) | Kd (hFAP (M39-A757)) | IC50 [2] | solubility (Kinetic solubility; [5]) | rHep CLint [3] | microsomal CLint [4, 6] | IC50 (FAP; hFAP […]) | Compound | solubility (Kinetic solubility) | microsomal CLint [4]
7 | 0.24 nM | 0.065 nM | 0.000046 s⁻¹ | 1300000 M⁻¹ s⁻¹ | 0.043 nM | 280 nM |  |  |  |  | N#C[C@@H]1CSCN1C(=O)CNC(=O)c1ccnc2ccc(N3CCC[C@H](F)C3)cc12 (mixture of isomers) [Example 40, N-(2-((R)-4-Cyanothiazolidin-3-yl)-2-oxoethyl)-6-((RS)-3-fluoropiperidin-1-yl)quinoline-4-carboxamide] |  | 
8 | 0.22 nM | 0.074 nM | 0.000072 s⁻¹ | 1700000 M⁻¹ s⁻¹ | 0.042 nM | 540 nM | 140 µM | 160 μL/min/1E6 | 220 µL/min/mg |  | C[C@H]1CC(F)(F)CCN1c1ccc2nccc(C(=O)NCC(=O)N3CSC[C@H]3C#N)c2c1 (mixture of isomers) [Example 44, N-(2-((R)-4-Cyanothiazolidin-3-yl)-2-oxoethyl)-6-((RS)-4,4-difluoro-2-methylpiperidin-1-yl)quinoline-4-carboxamide] |  | 
9 | 0.54 nM | 0.087 nM | 0.00022 s⁻¹ | 120000 M⁻¹ s⁻¹ | 1.9 nM | 560 nM | 800 µM | 15 μL/min/1E6 | 92 µL/min/mg |  | N#C[C@@H]1CSCN1C(=O)CNC(=O)c1ccnc2ccc(-c3ccnn3[C@H]3CCCCO3)cc12 (mixture of isomers) [Example 176, N-(2-((R)-4-Cyanothiazolidin-3-yl)-2-oxoethyl)-6-(1-((RS)-tetrahydro-2H-pyran-2-yl)-1H-pyrazol-5-yl)quinoline-4-carboxamide] |  | 
10 | 0.44 nM | 0.18 nM | 0.000098 s⁻¹ | 3800000 M⁻¹ s⁻¹ | 0.026 nM | 220 nM | 150 µM | 250 μL/min/1E6 | 220 µL/min/mg |  | N#C[C@@H]1CSCN1C(=O)CNC(=O)c1ccnc2ccc(N3C[C@@H]4CC[C@H]3C4)cc12 (mixture of isomers) [Example 210, 6-((1RS,4SR)-2-Azabicyclo[2.2.1]heptan-2-yl)-N-(2-((R)-4-cyanothiazolidin-3-yl)-2-oxoethyl)quinoline-4-carboxamide] |  | 
11 |  | 0.13 nM | 0.0004 s⁻¹ | 4100000 M⁻¹ s⁻¹ | 0.095 nM | 690 nM | 700 µM (≈ 299 µg/mL) | 28 μL/min/1E6 | 75 µL/min/mg | 0.24 nM | N#C[C@@H]1CSCN1C(=O)CNC(=O)c1ccnc2ccc(N3CCSCC3)cc12 [Example 3, (R)—N-(2-(4-Cyanothiazolidin-3-yl)-2-oxoethyl)-6-thiomorpholinoquinoline-4-carboxamide] |  | 
12 |  | 0.1 nM | 0.000065 s⁻¹ | 1300000 M⁻¹ s⁻¹ | 0.056 nM | 580 nM | 15 µM (≈ 6.74 µg/mL) | 7.6 μL/min/1E6 | 31 µL/min/mg | 0.31 nM | N#C[C@@H]1CSCN1C(=O)CNC(=O)c1ccnc2ccc(N3CC(C(F)(F)F)C3)cc12 [Example 26, (R)—N-(2-(4-Cyanothiazolidin-3-yl)-2-oxoethyl)-6-(3-(trifluoromethyl)-azetidin-1-yl)quinoline-4-carboxamide] |  | 
13 |  | 0.079 nM | 0.000092 s⁻¹ | 2900000 M⁻¹ s⁻¹ | 0.043 nM | 280 nM |  | 15 μL/min/1E6 |  | 0.2 nM | N#C[C@@H]1CSCN1C(=O)CNC(=O)c1ccnc2ccc(N3C[C@@H](F)[C@H](F)C3)cc12 [Example 214, N-(2-((R)-4-Cyanothiazolidin-3-yl)-2-oxoethyl)-6-((3R,4R)-3,4-difluoro-pyrrolidin-1-yl)quinoline-4-carboxamide] |  | 
